In US20260028344A1, “CRYSTALLINE FORMS OF LANRAPLENIB AND METHODS OF MAKING AND USING THE SAME” (Kronos Bio, Inc., priority 2022, published 2026):

Test: Solubility / biopharmaceutical classification (BCS) of lanraplenib
Assay type: physicochemical
Conditions: in physiological conditions

- solubility: low
Structure (SMILES): Nc1cncc(-c2cn3ccnc3c(Nc3ccc(N4CCN(C5COC5)CC4)cc3)n2)n1 [Lanraplenib]
